The values that follow come from BindingDB's records for patent US20260042753 (Merck Patent, 2026).

pIC50: −log10 of the molar value.

The test system of this assay is Mast/stem cell growth factor receptor Kit [V654A]. The assay is described as follows: c-Kit(V654A) Assay. The procedure: c-Kit(V654A) (N-terminal GST-tagged, recombinant human c-Kit, amino acids 544-end containing the V654A mutation) is incubated with 8 mM MOPS pH 7.0, 0.2 mM EDTA, 250 μM GGMEDIYEFMGGKKK, 10 mM MgAcetate and [gamma-33P-ATP](specific activity approx. 500 cpm/pmol, concentration 200 μM). The reaction is initiated by the addition of the MgATP mix. After incubation for 40 minutes at room temperature, the reaction is stopped by the addition of 3% phosphoric acid solution. 10 μL of the reaction is then spotted onto a P30 filtermat and washed three times for 5 minutes in 75 mM phosphoric acid and once in methanol prior to drying and scintillation counting.
As a reminder, the pIC50 is the negative decadic logarithm of the IC50, by convention in mol/L. High values mean a low IC50, low ones a high IC50. `COCCOc1cc2[nH]nc(-c3cc(-c4ccc(C(=O)N5C[C@H]6CCOC[C@H]6C5)cc4)no3)c2cc1F` (relative stereo) [US20260042753, Compound A214] showed a pIC50 of 9.36.

The molecule `COCCOc1cc2[nH]nc(-c3cc(-c4ccc(C(=O)N5C[C@@H]6CC(=O)N[C@@H]6C5)cc4)no3)c2cc1F` (relative stereo) [US20260042753, Compound A203] had a pIC50 of 8.85.

As for `COCCOc1cc2[nH]nc(-c3cc(-c4ccc(N5CC[C@H]6[C@H]5CCN6C)cc4)no3)c2cc1F` (relative stereo) [US20260042753, Compound A126], the pIC50 is 8.77.

Take `COCCOc1cc2[nH]nc(-c3cc(-c4ccc([SH2+]([O-])C=N)cc4)no3)c2cc1F` [US20260042753, Compound A226]: the pIC50 is 8.70.

Molecule `COCCOc1cc2[nH]nc(-c3cc(-c4ccc(C(=O)N5CC[C@H]6COC[C@H]6C5)cc4)no3)c2cc1F` (relative stereo) [US20260042753, Compound A215] had a pIC50 of 9.12.

`COCCNC(=O)c1ccc(-c2cc(-c3n[nH]c4cc(C(=O)NCCOC)ccc34)on2)cc1` [US20260042753, Compound A23] gave a pIC50 of 8.00.

`COCCOc1cc2[nH]nc(-c3cc(-c4ccc(C(=O)N5CC[C@@H]6CNC(=O)[C@@H]65)cc4)no3)c2cc1F` (relative stereo) [US20260042753, Compound A89]: the pIC50 is 9.24.
